Assay results reported in ChEMBL document CHEMBL4265928, “Design, synthesis, and biological evaluation of 2-(phenoxyaryl)-3-urea derivatives as novel P2Y1 receptor antagonists” (Eur J Med Chem, 2018).

What was measured:
Rattus norvegicus = assay: Antiplatelet activity in Sprague-Dawley rat platelet rich plasma assessed as inhibition of ADP-induced platelet aggregation at 3 mg/kg, ig after 2 hrs relative to control; assay type: functional; settings: po
P2Y purinoceptor 1 = P2Y purinoceptor 1 (Homo sapiens, UniProt P47900); assay: Antagonist activity at P2Y1 (unknown origin) expressed in human 1321N1 cells assessed as induction of calcium stimulation by fluo-4 dye based assay; assay type: functional, cell-based
Sequence of P2Y purinoceptor 1 (P47900 whole entry): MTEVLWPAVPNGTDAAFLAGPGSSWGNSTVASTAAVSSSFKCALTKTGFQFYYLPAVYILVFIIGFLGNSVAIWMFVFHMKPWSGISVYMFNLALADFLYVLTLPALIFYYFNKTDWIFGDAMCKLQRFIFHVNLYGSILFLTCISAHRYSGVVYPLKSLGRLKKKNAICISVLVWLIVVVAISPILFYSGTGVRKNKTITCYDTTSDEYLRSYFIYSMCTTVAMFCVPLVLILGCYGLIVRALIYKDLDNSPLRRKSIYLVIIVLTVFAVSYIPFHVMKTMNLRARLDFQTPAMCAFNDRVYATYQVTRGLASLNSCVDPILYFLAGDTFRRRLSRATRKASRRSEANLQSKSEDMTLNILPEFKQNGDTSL

IC50 (P2Y purinoceptor 1) | Structure (SMILES) | inhibition in vivo at 3 mg/kg (Rattus norvegicus)
7.05 µM | CC(C)(C)c1ccccc1Oc1ncccc1NC(=O)N[C@H]1CC[C@H](C)CC1 | 57.6%
2.41 µM | CC(C)(C)c1ccccc1Oc1ncccc1NC(=O)NC1CCCC1 | –
0.82 µM | CC1CCCCC1NC(=O)Nc1cccnc1Oc1ccccc1C(C)(C)C (configuration not stated) | –
9.98 µM | CCCCNC(=O)Nc1cccnc1Oc1ccccc1C(C)(C)C | 22%

More lines, now with the values behind:

Structure (SMILES) | IC50 (P2Y purinoceptor 1) | inhibition in vivo at 3 mg/kg (Rattus norvegicus)
CC(C)(C)c1ccccc1Oc1ncccc1NC(=O)Nc1ccc(OC(F)(F)F)cc1 | – | 67.4%
Cc1ccc(NC(=O)Nc2ccc(OC(F)(F)F)cc2)c(Oc2ccccc2C(C)(C)C)n1 | 0.21 µM | 68.9%
COC(=O)c1ccc(NC(=O)Nc2cccnc2Oc2ccccc2C(C)(C)C)s1 | 12.9 µM | –
CCOC(=O)c1ccc(NC(=O)Nc2cccnc2Oc2ccccc2C(C)(C)C)s1 | 12.5 µM | 50.6%
CC(C)(C)c1ccccc1Oc1ncccc1NC(=O)NC1C2CC3CC(C2)CC1C3 (configuration not stated) | 0.62 µM | 26.7%
CC(C)(C)c1ccccc1Oc1ncccc1NC(=O)Nc1ccc(C(=O)OCc2ccccc2)s1 | 7.19 µM | 69.4%
CC(C)(C)c1ccccc1Oc1ccccc1NC(=O)Nc1ccc(OC(F)(F)F)cc1 | 7.53 µM | –
